Results: patent publication US20110195924A1, “Methods of Inhibiting the Interaction Between S100P and the Receptor for Advanced Glycation End-Products” (priority 2008, published 2011)

Legend:
MPanc-96 tumors = test: MPanc-96 orthotopic tumor growth and metastasis in scid mice; type: in vivo; settings: MPanc-96 model; for lung metastasis, mean: control 5.9×10^7; for liver metastasis, mean: control 9.4×10^8; for tumor burden, mean: gemcitabine 125 mg/kg bi-weekly i.p., cromolyn 5 mg/kg daily i.p., end of six weeks, control 1.1×10^10
Method: FIGS. 5A-5F show the effect of cromolyn on MPanc-96 tumor growth and metastasis in vivo. MPanc-96 cells stably expressing the firefly luciferase gene were injected orthotopically into 4-week-old male CB 17 scid mice. […] Mice were divided into four groups of five mice each with an equivalent mean tumor size between groups. […] One group was treated with water (control), one group received gemcitabine bi-weekly (125 mg per kg body weight bi-weekly by intraperitoneal injection), one group was administered cromolyn daily (5 mg per kg body weight daily by intraperitoneal injection), and the final group was given the combination of cromolyn and gemcitabine. All groups were treated for six weeks. Bioluminescent imaging was done weekly to assess tumor growth. […] Means and 95% confidence intervals from two independent experiments are shown (n=20). Two-tailed two-sample (unpaired) Student's t-tests were used to determine P values. The anti-tumorigenic capability of the drug cromolyn was assessed in 4-week-old male CB 17 scid mice (n=20) carrying orthopic tumors of BxPC-3, MPanc96, and Panc-1 cells stably expressing a Lenti-luc reporter. All mouse experiments were reviewed and approved by the Institutional Animal Care and Use Committee of UT MD Anderson Cancer Center. All mice were maintained in a sterile environment. Cages, bedding, food, and water were all autoclaved. All mice were maintained on a daily 12-hour light/12-hour dark cycle, according to the institutional animal welfare guidelines. BxPC-3, MPanc96, and Pane-1 cells carrying the Lenti-luc reporter gene were grown to 80% confluence, harvested by incubation with trypsin-EDTA, washed twice in PBS, and resuspended to a final concentration of 4.0×10^6 cells/mL. Each mouse (n=20 mice per cell line) was injected (into the pancreas) with cell suspensions (50 μL). Bioluminescent imaging to determine tumor volume was performed 1 week after injection because the tumors became established within this amount of time. This initial tumor volume was used to divide the mice into four groups of five mice each, such that the mean tumor size was equal between groups (FIGS. 4A, 5A, and 6A). To allow enough time to observe differences among treatment groups, the mice were followed for the next 5 weeks. One group of mice was then treated biweekly with a sub-maximal concentration of gemcitabine (125 mg per kg body weight by i.p. injection). A second group was treated with a daily injection of cromolyn (5 mg per kg body weight by i.p. injection). A third group was treated with both bi-weekly gemcitabine and daily cromolyn. The control group was treated daily with vehicle. Treatments were continued for 5 weeks, and the effects on the tumor burden and metastasis were analyzed by weekly bioluminescence imaging (FIGS. 4B, 5B, and 6B). At the end of the experiment the mice were anesthetized with 1.5% isofluorane/air mixture and killed by cervical dislocation. Bioluminescence imaging was conducted using a cryogenically cooled IVIS 100 imaging system coupled to a data acquisition computer running Living Image software (Xenogen Corp., Alameda, Calif.). Before imaging, mice were placed in an acrylic chamber, anesthetized with 1.5% isofluorane/air mixture, and injected i.p. with 15 mg/mL of luciferin potassium salt in PBS at a dose of 150 mg per kg body weight. A digital grey scale image of each mouse was acquired, followed by acquisition and overlay of a pseudocolor image representing the spatial distribution of detected photons emerging from active luciferase within the mouse. Tumor volume was quantified as the sum of all detected photons within the region of the tumor per second. At the end of experiment, the mice were killed, and tumors were surgically removed and weighed. After the primary tumors were removed, cancer cell dissemination and metastasis was visualized using IVIS imaging, and metastatic colonies were counted. […]

BxPC-3 tumors = test: BxPC-3 orthotopic tumor growth and metastasis in scid mice; type: in vivo; settings: BxPC-3 model; for lung metastasis, mean: control 5.5×10^8; for tumor burden, difference versus control / tumor burden, mean: end of six weeks; for tumor burden, mean: gemcitabine 125 mg/kg bi-weekly i.p., cromolyn 5 mg/kg daily i.p., control 1.6×10^9
Method: FIGS. 4A-4F show the effect of cromolyn on BxPC-3 tumor growth and metastasis in vivo. BxPC-3 cells stably expressing the firefly luciferase gene were injected orthotopically into 4 week old male CB 17 scid mice. […] Mice were divided into four groups of five mice each with an equivalent mean tumor size between groups. […] One group was treated with water (control), one group received gemcitabine bi-weekly (125 mg kg body weight bi-weekly by intraperitoneal injection), one group was administered cromolyn daily (5 mg per kg body weight daily by intraperitoneal injection), and the final group was given the combination of daily cromolyn and bi-weekly gemcitabine. All groups were treated for six weeks. Bioluminescent imaging was done weekly to assess tumor growth. […] Means and 95% confidence intervals are shown. (n=20). Two-tailed two-sample (unpaired) Student's t-tests were used to determine P values. The anti-tumorigenic capability of the drug cromolyn was assessed in 4-week-old male CB 17 scid mice (n=20) carrying orthopic tumors of BxPC-3, MPanc96, and Panc-1 cells stably expressing a Lenti-luc reporter. All mouse experiments were reviewed and approved by the Institutional Animal Care and Use Committee of UT MD Anderson Cancer Center. All mice were maintained in a sterile environment. Cages, bedding, food, and water were all autoclaved. All mice were maintained on a daily 12-hour light/12-hour dark cycle, according to the institutional animal welfare guidelines. BxPC-3, MPanc96, and Pane-1 cells carrying the Lenti-luc reporter gene were grown to 80% confluence, harvested by incubation with trypsin-EDTA, washed twice in PBS, and resuspended to a final concentration of 4.0×10^6 cells/mL. Each mouse (n=20 mice per cell line) was injected (into the pancreas) with cell suspensions (50 μL). Bioluminescent imaging to determine tumor volume was performed 1 week after injection because the tumors became established within this amount of time. This initial tumor volume was used to divide the mice into four groups of five mice each, such that the mean tumor size was equal between groups (FIGS. 4A, 5A, and 6A). To allow enough time to observe differences among treatment groups, the mice were followed for the next 5 weeks. One group of mice was then treated biweekly with a sub-maximal concentration of gemcitabine (125 mg per kg body weight by i.p. injection). A second group was treated with a daily injection of cromolyn (5 mg per kg body weight by i.p. injection). A third group was treated with both bi-weekly gemcitabine and daily cromolyn. The control group was treated daily with vehicle. Treatments were continued for 5 weeks, and the effects on the tumor burden and metastasis were analyzed by weekly bioluminescence imaging (FIGS. 4B, 5B, and 6B). At the end of the experiment the mice were anesthetized with 1.5% isofluorane/air mixture and killed by cervical dislocation. Bioluminescence imaging was conducted using a cryogenically cooled IVIS 100 imaging system coupled to a data acquisition computer running Living Image software (Xenogen Corp., Alameda, Calif.). Before imaging, mice were placed in an acrylic chamber, anesthetized with 1.5% isofluorane/air mixture, and injected i.p. with 15 mg/mL of luciferin potassium salt in PBS at a dose of 150 mg per kg body weight. A digital grey scale image of each mouse was acquired, followed by acquisition and overlay of a pseudocolor image representing the spatial distribution of detected photons emerging from active luciferase within the mouse. Tumor volume was quantified as the sum of all detected photons within the region of the tumor per second. At the end of experiment, the mice were killed, and tumors were surgically removed and weighed. After the primary tumors were removed, cancer cell dissemination and metastasis was visualized using IVIS imaging, and metastatic colonies were counted. Subsequently, tissues were fixed with formaldehyde, and histology was used to verify the accuracy of the bioluminescence data. […]

Compound | liver metastasis, difference versus control (MPanc-96 tumors) | lung metastasis, difference versus control (MPanc-96 tumors) | tumor burden, difference versus control (MPanc-96 tumors) | lung metastasis, mean (MPanc-96 tumors) | liver metastasis, mean (MPanc-96 tumors) | tumor burden, mean (MPanc-96 tumors) | effect on body weight (in words) (MPanc-96 tumors; up to 6 weeks) | liver metastasis (in words) (BxPC-3 tumors) | lung metastasis, difference versus control (BxPC-3 tumors) | lung metastasis, mean (BxPC-3 tumors) | tumor burden, difference versus control (BxPC-3 tumors) | tumor burden, mean (BxPC-3 tumors) | effect on body weight (in words) (BxPC-3 tumors; up to 6 weeks) | body weight, difference versus control (BxPC-3 tumors) [g] | body weight at the end of the experiment, mean (BxPC-3 tumors; control 31.1) [g] | metastasis in lung or liver compared with control mice (BxPC-3 tumors; treatment alone)
O=C(O)c1cc(=O)c2c(OCC(O)COc3cccc4oc(C(=O)O)cc(=O)c34)cccc2o1 [cromolyn, disodium 1,3-bis[(2′-carboxylatochromon-5′-yl)oxy]-2-hydroxypropane] | 7.2×10^8 photons/sec | 5.6×10^7 photons/sec | 6.2×10^9 photons/sec | 3.2×10^6 photons/sec | 2.2×10^8 photons/sec | 4.8×10^9 photons/sec | no effect | but not liver metastasis | 3.9×10^8 photons/sec | 1.6×10^8 photons/sec | 1.2×10^9 photons/sec | 4.4×10^8 photons/sec | no effect | – | – | –
Nc1ccn([C@@H]2O[C@H](CO)[C@@H](O)C2(F)F)c(=O)n1 [gemcitabine] | 8.1×10^8 photons/sec | 5.4×10^7 photons/sec | 6.9×10^9 photons/sec | 5.0×10^6 photons/sec | 1.2×10^8 photons/sec | 4.1×10^9 photons/sec | – | – | – | 3.9×10^8 photons/sec | 6.8×10^8 photons/sec | 9.2×10^8 photons/sec | – | 3.9 | 27.2 | did not reduce
